Test results taken from US11510964B2, “Macrocyclic peptides to decrease c-Myc protein levels and reduce cancer cell growth” (University of Kansas, priority 2017, dated 2022).
“Also recorded” adds a separate entry of the source. Non-standard residues stand in square brackets, D forms with d. Residues, ends and D or L forms follow the SMILES beside them.

Assays:
BPH-1 cells [1] = assay: Cell viability assay (Trypan Blue); assay type: cell-based; conditions: BPH-1 normal prostate cells, 1-40 μM, 48 h
Method: (§1) The viability of prostate cancer cells was determined using Trypan Blue (Sigma) per the manufacturer's instructions. Cells were grown in 6 well plates to a density of 1×10^5 cells/well to 75% confluency and treated with compound in 0.5% DMSO at the indicated concentrations for 24-72 h, with 0.5% DMSO as the vehicle control. After treatment, the cell media from each well was collected. The cells were washed with phosphate buffer saline (PBS), trypsinized, and collected. All of the cells, combined media, and washes were centrifuged at 250×g for 5 min. The supernatant was discarded, and the cell pellet was resuspended in 500 μL PBS. Trypan blue (10 μL) was added to 100 μL of resuspended cells, and the solution incubated for 10 min. The cell number in 10 μL was then counted using a hematocytometer. Viable cells (not stained) were distinguished from dead cells (colored blue) and the % viable cells calculated as follows: [(number of white cells)/(number of total cells (white+blue))]*100 and compared with untreated cells.^16

[2] = tested on: transfected HEK-293 cells; assay: c-Myc overexpression, Annexin V-APC/PI apoptosis assay; assay type: cell-based, human; conditions: 10 μM, 48 h
Method: The extent of apoptosis was analyzed by detecting surface expression of phosphatidylserine on apoptotic cells using an Annexin V-APC/PI dual staining apoptosis detection kit I (BD Biosciences) according to the manufacturer's protocol. Following treatment of PC-3 cells with 10 μM [D-Trp]CJ-15,208 or vehicle for 24 h or 48 h, the cells were collected, washed twice with cold PBS, and resuspended in 1× binding buffer at a concentration of 1×10^6 cells/mL. Cell suspension (100 μL) was transferred to a 5 ml culture tube, and 5 μL of Annexin V-APC and 25 μL of PI (50 μg/mL) were added. The cells were incubated for 15 min at room temperature in the dark with gentle vortexing, 400 μL of 1× binding buffer was then added to each sample, and the samples were analyzed using a Beckman-Coulter MoFlo XDP flow cytometer within one hour. The number of viable, apoptotic and necrotic cells were quantified using FlowJo v10.0.7. The apoptosis fraction (%) was calculated as (number of apoptotic cells/the number of total cells observed)×100%.^38
Forced expression of c-Myc in HEK 293 cells was performed using X-temeGENE HP #6366244001 (Sigma). Cells were cultured in antibiotic free DMEM supplemented with 10% FBS and transfected with pcDNA3-HA-HA-c-Myc #74164 (Addgene). Empty-vector pcDNA3-EV was used as a control. […] Samples were analyzed using a BD FACSCanto-II cell analyzer and quantified in FlowJo v10.2. […]

[3] = mice, dose of 60 mg/kg; cited from earlier work
[4] = cited from earlier work
BPH-1 cells [5] = assay: Cell proliferation assay (WST-1); assay type: cell-based
Method: (§2) Human prostate cancer PC-3 cells were cultured and maintained in EMEM (ATCC), non-prostate HEK (human embryonic kidney) cells were cultured in DMEM, human prostate cancer DU145, LNCaP, 22Rv1 cells were cultured in RPMI 1640 (ATCC), and normal BPH-1 prostate cells and prostate cancer C4-2 cell line were cultured in RPMI 1640 (ATCC), all containing 10% fetal bovine serum (Atlanta Biologicals) and 1% penicillin/streptomycin (Invitrogen). Cells were grown at 37° C. in humidified air with 5% CO2 and passaged every fourth to fifth day following trypsinization with trypsin/EDTA (Invitrogen).^16
(§3) PC-3, LNCaP, DU 145, 22Rv1, C4-2, BPH-1, and HEK cells were grown to a density of 2000 cells/well in 96 well plates and treated with [D-Trp]CJ-15,208 or other peptides for 24-72 h in duplicate. Media containing [D-Trp]CJ-15,208 was changed every 24 h. The proliferation of treated cells was determined using the cell proliferation reagent WST-1 (Roche) per the manufacturer's instructions and compared to […] control cells in 1% DMSO in media. After treatment with compound 10 μL of the reagent was added to the well in 100 μL culture media, and the cells incubated at 37° C. for 30 min. The absorbance of the media in each well was measured at […] using a plate reader (BioTek). The percentage cell proliferation was normalized to vehicle treated control cells calculated as: (mean absorbance of sample/mean absorbance of control cells)×100.^38
(§4) Each experiment was performed in triplicate unless otherwise stated in the figure legend. GraphPad Prism 5 was used to determine IC50 values. Data represent the mean value+/−SEM. Compound vs. vehicle treated cells in the cell cycle phase and apoptosis experiments (FIGS. 5-8) were compared using the student's t-test, with a two-tailed, unpaired method, using the Prism software. The effects of compound vs. vehicle treatment on protein levels (FIG. 10) were evaluated by one-way ANOVA with Dunnett's test for multiple comparisons.

C4-2 cells = assay: Cell proliferation assay (WST-1); assay type: cell-based
Method: as §2, §3, §4

LNCaP cells = assay: Cell viability assay (Trypan Blue); assay type: cell-based, human; conditions: 48 h and 72 h
Method: as §1

PC-3 cells = assay: Cell viability assay (Trypan Blue); assay type: cell-based, human; conditions: 48 h and 72 h
Method: as §1

22Rv1 cells = assay: Cell viability assay (Trypan Blue); assay type: cell-based, human; conditions: 48 h and 72 h
Method: as §1

[6] = tested on: PC-3 cells xenograft tumors; assay: Mouse xenograft model, tumor growth inhibition; assay type: in vivo; conditions: PC-3 xenograft in nude mice, 30 mg/kg intraperitoneally three times per week
Method: An in-vivo study was performed to determine tumor growth inhibition by [D-Trp]CJ-15,208 in a mouse xenograft model. PC-3 cells were injected subcutaneously in both rear flanks of nude mice. Once tumors were established, mice were treated intraperitoneally three times per week with either vehicle (50% DMSO, 45% PEG 400, and 5% polyoxyethylene (20) sorbitan monooleate (Tween 80); 3 mice, 6 tumors) or [D-Trp]CJ-15,208 (30 mg/kg in vehicle; 2 mice, 3 tumors). Tumor volume was measured using calipers.

## O=C1N[C@H](Cc2c[nH]c3ccccc23)C(=O)N[C@@H](Cc2ccccc2)C(=O)N2CCC[C@@H]2C(=O)N[C@H]1Cc1ccccc1 [[D-Trp]CJ-15,208, cyclo[Phe-D-Pro-Phe-D-Trp]] (cyclo(F[dP]F[dW]))
BPH-1 cells [1]
  cell death (Trypan blue): no evidence of cell death
[2]; HEK-293 overexpressing c-Myc
  early apoptosis: significant increase in early apotosis
[2]; HEK-293 transfected with empty vector
  early apoptosis: no significant difference
[3]
  toxicity: no evidence of toxicity
[4]
  activity after oral administration: active after oral administration
BPH-1 cells [5]; 48 h
  IC50, cell growth: No effect
BPH-1 cells [5]; 72 h
  IC50, cell growth: No effect
BPH-1 cells [5]; time not stated
  effect on cell proliferation / cytotoxicity: No cytotoxicity was observed; also recorded: did not prevent cell proliferation
C4-2 cells; 48 h
  IC50, cell growth: No effect
C4-2 cells; 72 h
  IC50, cell growth: No effect
C4-2 cells; time not stated
  effect on cell proliferation: no effect; also recorded: did not prevent cell proliferation
LNCaP cells
  cell death (Trypan blue): resulted in cell death
PC-3 cells
  cell death (Trypan blue): resulted in cell death
22Rv1 cells
  cell death (Trypan blue): resulted in cell death
[6]
  tumor growth compared to vehicle: decrease in tumor growth
